Test system: SH-SYSY cell line
Experiment: Cytotoxicity, cell viability by MTT test
Assay type: cell-based
Settings: SH-SYSY cells
Method: An SH-SYSY cell line (ATCC) was used to confirm the cytotoxicity of nevirapine. The SH-SYSY cell line was seeded in a 96-well plate, cultured, treated with an increasing concentration (0, 10, 100 μM) of nevirapine, and then incubated at a constant temperature for 24 hours. Thereafter, cell viability was measured using an MTT test method. Cells treated with 0 μM nevirapine were used as the control. ***P<0.001 against the control. Also, in the next experiment, the cytotoxicity of pirenzepine to be used as a reference drug was tested in the same manner as in the cytotoxicity experiment of nevirapine.

Structure (SMILES) | cell viability compared with the control (10 μM, 24 hours) | decrease in cell viability (100 μM, 24 hours) | cell viability compared with the control (0.5 μM) | decrease in cell viability (10 μM)
Cc1ccnc2c1NC(=O)c1cccnc1N2C1CC1 [nevirapine, 11-cyclopropyl-5,11-dihydro-4-methyl-6H-dipyrido[3,2-b:2′,3′-e][1,4]diazepin-6-one] | not changed significantly | approximately 70% | – | –
CN1CCN(CC(=O)N2c3ccccc3C(=O)Nc3cccnc32)CC1 [pirenzepine] | – | – | slight decrease | approximately 60%

— patent US20230013435A1, “COMPOSITION FOR TREATING SYNUCLEINOPATHIES” (STANDIGM INC., priority 2019, published 2023)
